The values below come from US20260021147A1, “COMPOSITIONS AND METHODS FOR TREATING INFLAMMATORY DISEASE” (The Regents of the University of Michigan, priority 2022, published 2026).

“Also recorded” adds a separate entry of the source.

Data set [1] relates to intestinal microbiota. The data set can be described thus: Quantification of fecal bacterial density by 16S rRNA gene qPCR. Format: in vivo, mice. To be noted: 0.625 g/L meropenem in drinking water. The protocol:
Genomic DNA was isolated from stool as described above. qPCR was performed as previously described (Yang et al., 2015). In brief, 16S rRNA gene sequences were amplified from total fecal DNA using the primers 926F (5′-[…]-3′) and 1062R (5′-[…]-3′). Real-time PCR was carried out in 96-well optical plates on QuantStudio Flex 6 RT PCR (Thermo Fisher) and KAPA SYBR FAST Master Mix (Roche). The PCR conditions included one initial denaturing step of 10 min at 95° C. and 40 cycles of 95° C. for 20 sec and 60° C. for 1 min. Melting-curve analysis was performed after amplification. To determine bacterial density, a plasmid with a 16S rRNA gene of a murine Blautia isolate was generated in the pCR4 backbone and used as a standard.
(In qPCR the cycle at which signal appears reflects the starting amount.)

Data set [2] in a line: Short chain fatty acids profiling of mouse feces by IC-MS. The class given is in vivo, mice. To be noted: meropenem-treated allo-HSCT mice, day 18. On the procedure:
To determine the relative abundance of short chain fatty acids in mouse feces samples, extracts were prepared and analyzed by ultra-high resolution mass spectrometry (HRMS). Fecal pellets were homogenized with a Precellys Tissue Homogenizer. Metabolites were extracted using 1 mL ice-cold 0.1% Ammonium hydroxide in 80/20 (v/v) methanol/water. Extracts were centrifuged at 17,000 g for 5 min at 4° C., and supernatants were transferred to clean tubes, followed by evaporation to dryness under nitrogen. Dried extracts were reconstituted in deionized water, and 5 μL was injected for analysis by IC-MS. IC mobile phase A (MPA; weak) was water, and mobile phase B (MPB; strong) was water containing 100 mM KOH. A Thermo Scientific Dionex ICS-5000+ system included a Thermo IonPac AS11 column (4 μm particle size, 250×2 mm) with column compartment kept at 30° C. The autosampler tray was chilled to 4° C. The mobile phase flow rate was 360 μL/min, and the gradient elution program was: 0-5 min, 1% MPB; 5-25 min, 1-35% MPB; 25-39 min, 35-99% MPB; 39-49 min, 99% MPB; 49-50, 99-1% MPB. The total run time was 50 min. To assist the desolvation for better sensitivity, methanol was delivered by an external pump and combined with the eluent via a low dead volume mixing tee. Data were acquired using a Thermo Orbitrap Fusion Tribrid Mass Spectrometer under ESI negative ionization mode at a resolution of 240,000. […]

Data set [3] concerns colonic mucus layer. Kind of data set: Colonic mucus thickness by PAS staining. Format: in vivo, mice. To be noted: allogeneic mice, day 18. An excerpt: Pathology scores were quantified by a blinded pathologist. […] Sections were imaged using an Aperio AT2.
Data set [4] deals with intestinal microbiota. Kind of data set: Fecal microbiome of 44 allo-HSCT patients, pre-HSCT versus day 14. To be noted: pre-HSCT vs day 14, paired analysis. The class given is in vivo, human. On the procedure:
Fecal samples which were collected from patients and mice and colonic mucosal samples, which were collected from mice were weighed before DNA isolation. In brief, genomic DNA was isolated using the QIAamp DNA mini kit (51306, Qiagen) according to the manufacturer's protocol that was modified to include an intensive bead-beating lysis step. The V4 region of 16S rRNA gene was amplified by PCR from 100 ng of each of extracted and purified genomic DNA using 515 forward and 806 reverse primer pairs (Caporaso et al., 2012). The quality and quantity of the barcoded amplicons were assessed on an Agilent 4200 TapeStation system (Agilent) and Qubit Fluorometer (Thermo Fisher Scientific), and libraries were prepared after pooling at equimolar ratios. […]
Sequencing data from paired-end reads were de-multiplexed using QIIME 2 (Caporaso et al., 2010). Merging of paired-end reads, dereplicating, and length filtering was performed using VSEARCH 2.17.1 (Rognes et al., 2016). […] Weighted UniFrac distances (Lozupone et al., 2011) were determined using QIIME 2, visualized using principal coordinate analysis, and evaluated for statistical significance using permutational multivariate analysis of variance (PERMANOVA) testing. […] Paired samples were analyzed using the Wilcoxon signed rank test with adjustment for multiple comparisons.

For the compound `C[C@@H](O)[C@H]1C(=O)N2C(C(=O)O)=C(S[C@@H]3CN[C@H](C(=O)N(C)C)C3)[C@H](C)[C@H]12` [meropenem], in data set [1], the “reduction in fecal bacterial density” value is reported as “one-log reduction”. For the same compound, in data set [2], the “fecal levels of SCFAs” value was “reduced fecal levels of SCFAs”. In addition, the colonic mucus layer result in data set [3] is listed as “significantly thinned colonic mucus layer; also recorded: thinning of the colonic mucus layer”. Moreover, the “change of genus Bacteroides from baseline” value in data set [4] is “significant expansion of bacteria from the genus Bacteroides”.
